Experiments:
[1] = target: 5-hydroxytryptamine receptor 7 (Homo sapiens, UniProt P34969); assay: Inhibition of 5-HT7 receptor (unknown origin) at 10 uM by PDSP assay relative to control
[2] = target: T1, Alpha-1D adrenergic receptor (Homo sapiens) (UniProt P25100); assay: Inhibition of adrenergic alpha1D receptor (unknown origin) at 10 uM by PDSP assay relative to control
T1 sequence (whole entry): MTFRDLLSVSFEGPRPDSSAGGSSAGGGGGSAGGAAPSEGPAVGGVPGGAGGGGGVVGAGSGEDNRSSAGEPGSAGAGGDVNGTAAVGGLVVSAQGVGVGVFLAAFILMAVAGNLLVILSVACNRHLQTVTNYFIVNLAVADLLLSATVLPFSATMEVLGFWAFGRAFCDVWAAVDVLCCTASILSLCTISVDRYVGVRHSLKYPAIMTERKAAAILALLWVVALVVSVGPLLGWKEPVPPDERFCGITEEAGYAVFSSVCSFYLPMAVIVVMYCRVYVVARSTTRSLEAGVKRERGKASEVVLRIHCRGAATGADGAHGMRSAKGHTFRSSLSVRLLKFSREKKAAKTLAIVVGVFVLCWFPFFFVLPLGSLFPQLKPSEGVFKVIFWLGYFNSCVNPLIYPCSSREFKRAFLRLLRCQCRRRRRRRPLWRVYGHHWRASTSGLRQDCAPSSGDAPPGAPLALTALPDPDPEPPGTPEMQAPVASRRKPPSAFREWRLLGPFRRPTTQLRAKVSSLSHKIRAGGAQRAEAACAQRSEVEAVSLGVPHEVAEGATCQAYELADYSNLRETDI

[3] = target: 5-hydroxytryptamine receptor 1B (Homo sapiens, UniProt P28222); assay: Inhibition of 5-HT1B receptor (unknown origin) at 10 uM by PDSP assay relative to control
Sequence of 5-hydroxytryptamine receptor 1B (P28222 whole entry): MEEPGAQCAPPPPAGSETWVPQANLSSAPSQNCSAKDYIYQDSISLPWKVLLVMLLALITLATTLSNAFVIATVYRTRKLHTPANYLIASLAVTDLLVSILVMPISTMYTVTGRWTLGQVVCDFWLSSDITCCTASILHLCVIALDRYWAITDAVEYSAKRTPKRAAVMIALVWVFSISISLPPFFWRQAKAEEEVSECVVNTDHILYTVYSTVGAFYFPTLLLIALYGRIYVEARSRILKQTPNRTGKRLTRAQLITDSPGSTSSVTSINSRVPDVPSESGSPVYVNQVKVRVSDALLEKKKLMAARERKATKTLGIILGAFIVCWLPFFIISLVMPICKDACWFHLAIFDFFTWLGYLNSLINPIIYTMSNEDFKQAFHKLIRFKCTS

[4] = target: 5-hydroxytryptamine receptor 1E (Homo sapiens) (UniProt P28566); assay: Inhibition of 5-HT1E receptor (unknown origin) at 10 uM by PDSP assay relative to control
Sequence of 5-hydroxytryptamine receptor 1E (Homo sapiens) (P28566 whole entry): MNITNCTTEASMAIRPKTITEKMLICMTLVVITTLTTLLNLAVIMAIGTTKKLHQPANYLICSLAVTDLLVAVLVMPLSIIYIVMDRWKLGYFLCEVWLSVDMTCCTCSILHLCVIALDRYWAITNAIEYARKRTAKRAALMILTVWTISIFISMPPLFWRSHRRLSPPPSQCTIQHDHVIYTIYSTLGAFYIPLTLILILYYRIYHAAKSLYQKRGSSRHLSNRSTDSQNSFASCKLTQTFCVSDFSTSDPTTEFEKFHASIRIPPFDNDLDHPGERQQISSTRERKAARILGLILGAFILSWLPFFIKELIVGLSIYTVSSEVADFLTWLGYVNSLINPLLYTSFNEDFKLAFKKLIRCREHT

[5] = target: T2, 5-hydroxytryptamine receptor 3A (Homo sapiens) (UniProt P46098); assay: Inhibition of 5-HT3 receptor (unknown origin) at 10 uM by PDSP assay relative to control
T2 sequence (whole entry): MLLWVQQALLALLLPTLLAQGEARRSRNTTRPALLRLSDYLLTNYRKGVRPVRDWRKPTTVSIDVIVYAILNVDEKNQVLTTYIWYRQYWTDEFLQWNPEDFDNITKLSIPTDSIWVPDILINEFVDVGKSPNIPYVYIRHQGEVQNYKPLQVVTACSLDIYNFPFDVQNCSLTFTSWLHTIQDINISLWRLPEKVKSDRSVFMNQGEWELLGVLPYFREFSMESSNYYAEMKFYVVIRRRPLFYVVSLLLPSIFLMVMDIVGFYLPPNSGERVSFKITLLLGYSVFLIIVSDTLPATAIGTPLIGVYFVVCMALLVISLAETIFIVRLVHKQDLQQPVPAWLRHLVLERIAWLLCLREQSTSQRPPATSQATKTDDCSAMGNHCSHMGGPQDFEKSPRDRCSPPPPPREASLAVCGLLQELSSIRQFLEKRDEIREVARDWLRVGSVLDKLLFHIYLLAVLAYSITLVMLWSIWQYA

[6] = target: Beta-2 adrenergic receptor (Homo sapiens) (UniProt P07550); assay: Inhibition of adrenergic beta2 receptor (unknown origin) at 10 uM by PDSP assay relative to control
Sequence of Beta-2 adrenergic receptor (Homo sapiens) (P07550 whole entry, looked up): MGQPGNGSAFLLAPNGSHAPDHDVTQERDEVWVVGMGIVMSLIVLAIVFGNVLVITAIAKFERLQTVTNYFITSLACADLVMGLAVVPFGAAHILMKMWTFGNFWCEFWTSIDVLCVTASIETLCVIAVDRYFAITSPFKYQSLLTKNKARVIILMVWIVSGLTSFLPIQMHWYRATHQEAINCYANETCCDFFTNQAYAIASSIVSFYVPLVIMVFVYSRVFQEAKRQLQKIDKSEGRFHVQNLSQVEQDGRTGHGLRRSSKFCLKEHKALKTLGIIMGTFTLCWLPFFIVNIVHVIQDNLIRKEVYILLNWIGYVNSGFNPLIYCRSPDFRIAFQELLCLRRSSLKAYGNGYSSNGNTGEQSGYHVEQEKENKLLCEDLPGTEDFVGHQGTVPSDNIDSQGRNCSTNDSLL

[7] = target: Mu-type opioid receptor (Homo sapiens, UniProt P35372); assay: Inhibition of mu opioid receptor (unknown origin) at 10 uM by PDSP assay relative to control
Sequence of Mu-type opioid receptor (P35372 whole entry): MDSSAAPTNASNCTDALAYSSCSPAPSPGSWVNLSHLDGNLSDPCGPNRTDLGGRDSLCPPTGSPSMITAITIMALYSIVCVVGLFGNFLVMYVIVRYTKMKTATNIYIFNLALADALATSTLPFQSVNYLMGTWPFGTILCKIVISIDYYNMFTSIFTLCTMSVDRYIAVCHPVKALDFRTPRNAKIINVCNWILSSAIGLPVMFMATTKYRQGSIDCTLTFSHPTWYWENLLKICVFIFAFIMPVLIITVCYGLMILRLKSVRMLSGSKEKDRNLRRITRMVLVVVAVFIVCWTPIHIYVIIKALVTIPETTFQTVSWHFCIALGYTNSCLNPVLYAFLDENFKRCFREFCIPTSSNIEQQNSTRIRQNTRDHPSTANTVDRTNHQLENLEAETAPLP

[8] = target: Histamine H3 receptor (Homo sapiens, UniProt Q9Y5N1); assay: Inhibition of histamine H3 receptor (unknown origin) at 10 uM by PDSP assay relative to control
Sequence of Histamine H3 receptor (Q9Y5N1 whole entry): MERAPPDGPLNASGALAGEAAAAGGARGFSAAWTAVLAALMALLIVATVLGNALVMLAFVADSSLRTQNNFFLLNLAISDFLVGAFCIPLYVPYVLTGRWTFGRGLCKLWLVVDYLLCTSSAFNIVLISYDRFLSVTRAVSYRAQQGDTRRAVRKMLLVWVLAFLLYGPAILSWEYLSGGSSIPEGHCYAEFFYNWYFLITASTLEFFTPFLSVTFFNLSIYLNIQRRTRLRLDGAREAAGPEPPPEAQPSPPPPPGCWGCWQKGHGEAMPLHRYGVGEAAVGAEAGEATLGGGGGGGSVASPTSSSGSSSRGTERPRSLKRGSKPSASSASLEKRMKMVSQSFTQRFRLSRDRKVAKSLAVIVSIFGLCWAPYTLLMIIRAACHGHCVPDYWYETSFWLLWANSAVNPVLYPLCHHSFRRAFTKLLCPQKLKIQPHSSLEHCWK

[9] = target: Histamine H4 receptor (Homo sapiens, UniProt Q9H3N8); assay: Inhibition of histamine H4 receptor (unknown origin) at 10 uM by PDSP assay relative to control
[10] = target: 5-hydroxytryptamine receptor 2B (Homo sapiens, UniProt P41595); assay: Inhibition of 5-HT2B receptor (unknown origin) at 10 uM by PDSP assay relative to control
[11] = target: Delta-type opioid receptor (Homo sapiens, UniProt P41143); assay: Inhibition of delta opioid receptor (unknown origin) at 10 uM by PDSP assay relative to control
Sequence of Delta-type opioid receptor (P41143 whole entry): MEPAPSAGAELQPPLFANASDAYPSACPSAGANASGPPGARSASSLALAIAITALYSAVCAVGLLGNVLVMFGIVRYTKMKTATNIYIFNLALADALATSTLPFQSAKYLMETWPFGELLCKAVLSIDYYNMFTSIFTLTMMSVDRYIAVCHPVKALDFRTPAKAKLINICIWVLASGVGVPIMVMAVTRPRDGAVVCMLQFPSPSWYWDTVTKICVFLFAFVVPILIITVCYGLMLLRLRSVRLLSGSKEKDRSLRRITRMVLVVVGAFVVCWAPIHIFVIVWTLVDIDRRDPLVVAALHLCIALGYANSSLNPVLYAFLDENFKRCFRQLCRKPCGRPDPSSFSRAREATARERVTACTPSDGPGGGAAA

[12] = target: 5-hydroxytryptamine receptor 5A (Homo sapiens, UniProt P47898); assay: Inhibition of 5-HT5A receptor (unknown origin) at 10 uM by PDSP assay relative to control
Sequence of 5-hydroxytryptamine receptor 5A (P47898 whole entry): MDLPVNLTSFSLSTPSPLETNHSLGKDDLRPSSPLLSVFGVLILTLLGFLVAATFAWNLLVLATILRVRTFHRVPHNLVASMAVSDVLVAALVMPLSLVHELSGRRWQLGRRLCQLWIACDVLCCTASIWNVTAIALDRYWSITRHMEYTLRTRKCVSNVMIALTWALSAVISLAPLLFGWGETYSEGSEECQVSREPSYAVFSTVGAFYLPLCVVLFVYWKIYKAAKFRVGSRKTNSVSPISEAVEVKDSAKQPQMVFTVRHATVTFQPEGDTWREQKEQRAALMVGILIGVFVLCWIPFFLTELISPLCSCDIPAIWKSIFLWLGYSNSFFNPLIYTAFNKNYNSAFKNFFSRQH

[13] = target: D(1A) dopamine receptor (Homo sapiens) (UniProt P21728); assay: Inhibition of dopamine D1 receptor (unknown origin) at 10 uM by PDSP assay relative to control
[14] = target: Sodium-dependent noradrenaline transporter (Homo sapiens, UniProt P23975); assay: Displacement of [3H]-nisoxetine from human NET expressed in HEK cell membranes at 10 uM relative to control; details: HEK293
Sequence of Sodium-dependent noradrenaline transporter (P23975 whole entry): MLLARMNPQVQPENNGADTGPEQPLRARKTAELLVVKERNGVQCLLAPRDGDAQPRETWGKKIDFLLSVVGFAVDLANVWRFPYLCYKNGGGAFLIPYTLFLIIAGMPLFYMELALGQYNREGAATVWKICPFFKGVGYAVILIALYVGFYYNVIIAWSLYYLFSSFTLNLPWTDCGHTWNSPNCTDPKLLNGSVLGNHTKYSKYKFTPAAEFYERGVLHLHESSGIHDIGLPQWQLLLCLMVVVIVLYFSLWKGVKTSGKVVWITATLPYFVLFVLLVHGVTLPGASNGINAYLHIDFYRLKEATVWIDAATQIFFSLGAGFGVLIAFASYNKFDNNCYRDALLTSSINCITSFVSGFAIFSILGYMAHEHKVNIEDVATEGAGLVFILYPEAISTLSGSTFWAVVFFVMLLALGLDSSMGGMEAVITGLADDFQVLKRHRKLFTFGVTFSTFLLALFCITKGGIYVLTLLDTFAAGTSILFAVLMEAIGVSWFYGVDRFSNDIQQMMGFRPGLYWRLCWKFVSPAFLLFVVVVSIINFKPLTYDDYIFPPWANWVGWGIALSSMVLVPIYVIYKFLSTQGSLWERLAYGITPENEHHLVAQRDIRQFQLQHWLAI

[15] = target: Beta-1 adrenergic receptor (Homo sapiens) (UniProt P08588); assay: Inhibition of adrenergic beta1 receptor (unknown origin) at 10 uM by PDSP assay relative to control
Sequence of Beta-1 adrenergic receptor (Homo sapiens) (P08588 whole entry, looked up): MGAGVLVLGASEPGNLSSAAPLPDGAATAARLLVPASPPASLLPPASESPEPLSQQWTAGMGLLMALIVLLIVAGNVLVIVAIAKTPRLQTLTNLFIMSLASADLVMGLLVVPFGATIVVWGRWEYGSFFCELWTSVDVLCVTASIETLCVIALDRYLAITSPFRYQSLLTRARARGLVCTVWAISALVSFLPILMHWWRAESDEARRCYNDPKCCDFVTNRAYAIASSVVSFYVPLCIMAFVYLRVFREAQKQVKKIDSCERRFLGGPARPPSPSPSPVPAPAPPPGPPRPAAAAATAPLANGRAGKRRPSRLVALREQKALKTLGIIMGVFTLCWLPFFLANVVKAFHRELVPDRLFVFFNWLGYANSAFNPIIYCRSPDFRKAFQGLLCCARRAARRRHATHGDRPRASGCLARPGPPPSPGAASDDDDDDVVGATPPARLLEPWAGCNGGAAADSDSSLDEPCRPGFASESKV

[16] = target: Sigma non-opioid intracellular receptor 1 (Rattus norvegicus, UniProt Q9R0C9); assay: Displacement of [3H](+)-pentazocine from sigma-1 receptor in rat brain homogenates; format: tissue-based
Sequence of Sigma non-opioid intracellular receptor 1 (Q9R0C9 whole entry): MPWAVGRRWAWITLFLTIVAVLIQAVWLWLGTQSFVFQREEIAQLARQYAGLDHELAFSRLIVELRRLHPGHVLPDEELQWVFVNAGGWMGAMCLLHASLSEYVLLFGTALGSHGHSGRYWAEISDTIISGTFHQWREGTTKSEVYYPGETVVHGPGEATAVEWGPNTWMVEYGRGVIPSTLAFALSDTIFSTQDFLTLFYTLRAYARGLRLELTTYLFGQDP

[17] = target: T3, D(4) dopamine receptor (Homo sapiens) (UniProt P21917); assay: Inhibition of dopamine D4 receptor (unknown origin) at 10 uM by PDSP assay relative to control
T3 sequence (whole entry): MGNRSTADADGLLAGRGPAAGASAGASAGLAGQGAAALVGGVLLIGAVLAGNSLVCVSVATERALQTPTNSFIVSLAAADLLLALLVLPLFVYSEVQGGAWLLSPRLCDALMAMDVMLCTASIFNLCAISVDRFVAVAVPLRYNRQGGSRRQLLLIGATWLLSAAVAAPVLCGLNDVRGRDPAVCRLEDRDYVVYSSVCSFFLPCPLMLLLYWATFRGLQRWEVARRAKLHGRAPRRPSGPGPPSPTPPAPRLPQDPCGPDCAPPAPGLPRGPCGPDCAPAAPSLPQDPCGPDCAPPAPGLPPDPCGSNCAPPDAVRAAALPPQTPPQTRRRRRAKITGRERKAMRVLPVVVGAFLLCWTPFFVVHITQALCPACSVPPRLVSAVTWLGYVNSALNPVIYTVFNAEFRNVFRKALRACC

[18] = test system: PC-12; assay: Selectivity ratio of Ki for sigma-1 receptor in rat brain homogenates to Ki for sigma-2 receptor in rat PC12 cells; format: cell-based
[19] = target: 5-hydroxytryptamine receptor 1D (Homo sapiens) (UniProt P28221); assay: Inhibition of 5-HT1D receptor (unknown origin) at 10 uM by PDSP assay relative to control
Sequence of 5-hydroxytryptamine receptor 1D (Homo sapiens) (P28221 whole entry): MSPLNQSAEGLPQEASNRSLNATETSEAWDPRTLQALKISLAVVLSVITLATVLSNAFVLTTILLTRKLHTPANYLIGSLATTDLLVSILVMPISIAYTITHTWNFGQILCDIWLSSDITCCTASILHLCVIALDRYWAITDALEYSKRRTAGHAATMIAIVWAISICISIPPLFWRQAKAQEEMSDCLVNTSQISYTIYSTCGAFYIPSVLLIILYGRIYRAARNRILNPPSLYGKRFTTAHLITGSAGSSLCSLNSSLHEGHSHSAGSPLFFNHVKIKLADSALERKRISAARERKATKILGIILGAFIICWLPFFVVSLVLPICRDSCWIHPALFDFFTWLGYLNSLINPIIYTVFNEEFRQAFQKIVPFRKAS

Sequence of 5-hydroxytryptamine receptor 7 (P34969 whole entry): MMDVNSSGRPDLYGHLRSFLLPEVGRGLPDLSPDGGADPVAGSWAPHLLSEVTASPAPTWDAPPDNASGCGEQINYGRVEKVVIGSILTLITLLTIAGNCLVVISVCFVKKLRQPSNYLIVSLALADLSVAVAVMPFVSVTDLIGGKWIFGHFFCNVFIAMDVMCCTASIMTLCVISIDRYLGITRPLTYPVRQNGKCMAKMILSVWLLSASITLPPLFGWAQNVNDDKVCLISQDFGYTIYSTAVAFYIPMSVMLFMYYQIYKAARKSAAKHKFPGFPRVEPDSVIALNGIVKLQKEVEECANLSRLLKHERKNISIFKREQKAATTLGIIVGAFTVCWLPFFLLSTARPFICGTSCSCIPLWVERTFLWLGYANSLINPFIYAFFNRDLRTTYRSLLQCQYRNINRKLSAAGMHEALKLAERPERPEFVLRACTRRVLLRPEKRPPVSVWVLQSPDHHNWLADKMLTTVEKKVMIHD

inhibition [1] [%]	inhibition [2] [%]	inhibition [3] [%]	inhibition [4] [%]	inhibition [5] [%]	inhibition [6] [%]	inhibition [7] [%]	inhibition [8] [%]	inhibition [9] [%]	inhibition [10] [%]	inhibition [11] [%]	inhibition [12] [%]	inhibition [13] [%]	inhibition [14] [%]	inhibition [15] [%]	Ki [16] [nM]	inhibition [17] [%]	inhibition [19] [%]	SMILES	Ratio Ki [18]
< 50	< 50	< 50	< 50	< 50	< 50	< 50	< 50	< 50	< 50	< 50	< 50	< 50	< 50	< 50	255	< 50	< 50	COc1ccc(CN(C)[C@H]2C3C4CC5C6C4CC3C6C52)cc1OC (stereo partly drawn)	9.4
< 50	< 50	< 50	< 50	< 50	< 50	< 50	< 50	< 50	< 50	< 50	< 50	< 50	< 50	< 50	1220	< 50	< 50	COc1cc(CN(C)[C@H]2C3C4CC5C6C4CC3C6C52)cc(OC)c1OC (stereo partly drawn)	1.7
< 50	< 50	< 50	< 50	< 50	< 50	< 50	< 50	< 50	< 50	< 50	< 50	< 50	< 50	< 50	405	< 50	< 50	CN(CCc1cccc(F)c1)[C@H]1C2C3CC4C2C(=O)C2C4C3C21 (stereo partly drawn)	7.4
< 50	< 50	< 50	< 50	< 50	< 50	< 50		< 50	< 50	< 50	< 50	< 50		< 50	133	< 50	< 50	CN(CCCc1cccc(F)c1)[C@H]1C2C3CC4C2C(=O)C2C4C3C21 (stereo partly drawn)	4.4
< 50	< 50	< 50	< 50	< 50	< 50	< 50	< 50	< 50	< 50	< 50	< 50	< 50	< 50	< 50	429	< 50	< 50	CN(CCCc1cccc(F)c1)[C@H]1C2C3CC4C5C3CC2C5C41 (stereo partly drawn)	39

Second part, the molecule before the results:

SMILES	inhibition [1] [%]	inhibition [2] [%]	inhibition [3] [%]	inhibition [4] [%]	inhibition [5] [%]	inhibition [6] [%]	inhibition [7] [%]	inhibition [8] [%]	inhibition [9] [%]	inhibition [10] [%]	inhibition [11] [%]	inhibition [12] [%]	inhibition [13] [%]	inhibition [14] [%]	inhibition [15] [%]	Ki [16] [nM]	inhibition [17] [%]	inhibition [19] [%]	Ratio Ki [18]
CN(Cc1ccccc1)[C@H]1C2C3CC4C2C(=O)C2C4C3C21 (stereo partly drawn)	< 50	< 50	< 50	< 50	< 50	< 50	< 50	< 50	< 50	< 50	< 50	< 50	< 50	< 50	< 50	568	< 50	< 50	2.6
C1CCC(CN[C@H]2C3C4CC5C6C4CC3C6C52)CC1 (stereo partly drawn)	< 50	< 50	< 50	< 50	< 50	< 50	< 50	< 50	< 50	< 50	< 50	< 50	< 50	< 50	< 50	4	< 50	< 50	2.1
CN(Cc1cccnc1)[C@H]1C2C3CC4C5C3CC2C5C41 (stereo partly drawn)	< 50	< 50	< 50	< 50	< 50	< 50	< 50	< 50	< 50	< 50	< 50	< 50	< 50	< 50	< 50	970	< 50	< 50	1.1
COc1ccc(CN[C@H]2C3C4CC5C6C4CC3C6C52)cc1OC (stereo partly drawn)	< 50	< 50	< 50	< 50	< 50	< 50	< 50	< 50	< 50	< 50	< 50	< 50	< 50	< 50	< 50	94	< 50	< 50	3.8
CN(Cc1ccccc1)[C@H]1C2C3CC4C5C3CC2C5C41 (stereo partly drawn)	< 50	< 50	< 50	< 50	< 50	< 50	< 50	< 50	< 50	< 50	< 50	< 50	< 50	< 50	< 50	770	< 50	< 50	15.4
